Each structure is given as a SMILES string.

For twelve compounds, IC50 results are on record in patent publication US9586951B2 (FUJIFILM Corporation, priority 2013, dated 2017).

For this experiment, the target named is T1, ATM (Homo sapiens, UniProt Q13315).
T1 construct: detecting phosphorylation of Chk2 in a human non-small cell lung cancer cell line NCI-H460 (ATCC company); host or cells: NCI-H460 human non-small cell lung cancer cells
T1 sequence (Q13315 whole entry): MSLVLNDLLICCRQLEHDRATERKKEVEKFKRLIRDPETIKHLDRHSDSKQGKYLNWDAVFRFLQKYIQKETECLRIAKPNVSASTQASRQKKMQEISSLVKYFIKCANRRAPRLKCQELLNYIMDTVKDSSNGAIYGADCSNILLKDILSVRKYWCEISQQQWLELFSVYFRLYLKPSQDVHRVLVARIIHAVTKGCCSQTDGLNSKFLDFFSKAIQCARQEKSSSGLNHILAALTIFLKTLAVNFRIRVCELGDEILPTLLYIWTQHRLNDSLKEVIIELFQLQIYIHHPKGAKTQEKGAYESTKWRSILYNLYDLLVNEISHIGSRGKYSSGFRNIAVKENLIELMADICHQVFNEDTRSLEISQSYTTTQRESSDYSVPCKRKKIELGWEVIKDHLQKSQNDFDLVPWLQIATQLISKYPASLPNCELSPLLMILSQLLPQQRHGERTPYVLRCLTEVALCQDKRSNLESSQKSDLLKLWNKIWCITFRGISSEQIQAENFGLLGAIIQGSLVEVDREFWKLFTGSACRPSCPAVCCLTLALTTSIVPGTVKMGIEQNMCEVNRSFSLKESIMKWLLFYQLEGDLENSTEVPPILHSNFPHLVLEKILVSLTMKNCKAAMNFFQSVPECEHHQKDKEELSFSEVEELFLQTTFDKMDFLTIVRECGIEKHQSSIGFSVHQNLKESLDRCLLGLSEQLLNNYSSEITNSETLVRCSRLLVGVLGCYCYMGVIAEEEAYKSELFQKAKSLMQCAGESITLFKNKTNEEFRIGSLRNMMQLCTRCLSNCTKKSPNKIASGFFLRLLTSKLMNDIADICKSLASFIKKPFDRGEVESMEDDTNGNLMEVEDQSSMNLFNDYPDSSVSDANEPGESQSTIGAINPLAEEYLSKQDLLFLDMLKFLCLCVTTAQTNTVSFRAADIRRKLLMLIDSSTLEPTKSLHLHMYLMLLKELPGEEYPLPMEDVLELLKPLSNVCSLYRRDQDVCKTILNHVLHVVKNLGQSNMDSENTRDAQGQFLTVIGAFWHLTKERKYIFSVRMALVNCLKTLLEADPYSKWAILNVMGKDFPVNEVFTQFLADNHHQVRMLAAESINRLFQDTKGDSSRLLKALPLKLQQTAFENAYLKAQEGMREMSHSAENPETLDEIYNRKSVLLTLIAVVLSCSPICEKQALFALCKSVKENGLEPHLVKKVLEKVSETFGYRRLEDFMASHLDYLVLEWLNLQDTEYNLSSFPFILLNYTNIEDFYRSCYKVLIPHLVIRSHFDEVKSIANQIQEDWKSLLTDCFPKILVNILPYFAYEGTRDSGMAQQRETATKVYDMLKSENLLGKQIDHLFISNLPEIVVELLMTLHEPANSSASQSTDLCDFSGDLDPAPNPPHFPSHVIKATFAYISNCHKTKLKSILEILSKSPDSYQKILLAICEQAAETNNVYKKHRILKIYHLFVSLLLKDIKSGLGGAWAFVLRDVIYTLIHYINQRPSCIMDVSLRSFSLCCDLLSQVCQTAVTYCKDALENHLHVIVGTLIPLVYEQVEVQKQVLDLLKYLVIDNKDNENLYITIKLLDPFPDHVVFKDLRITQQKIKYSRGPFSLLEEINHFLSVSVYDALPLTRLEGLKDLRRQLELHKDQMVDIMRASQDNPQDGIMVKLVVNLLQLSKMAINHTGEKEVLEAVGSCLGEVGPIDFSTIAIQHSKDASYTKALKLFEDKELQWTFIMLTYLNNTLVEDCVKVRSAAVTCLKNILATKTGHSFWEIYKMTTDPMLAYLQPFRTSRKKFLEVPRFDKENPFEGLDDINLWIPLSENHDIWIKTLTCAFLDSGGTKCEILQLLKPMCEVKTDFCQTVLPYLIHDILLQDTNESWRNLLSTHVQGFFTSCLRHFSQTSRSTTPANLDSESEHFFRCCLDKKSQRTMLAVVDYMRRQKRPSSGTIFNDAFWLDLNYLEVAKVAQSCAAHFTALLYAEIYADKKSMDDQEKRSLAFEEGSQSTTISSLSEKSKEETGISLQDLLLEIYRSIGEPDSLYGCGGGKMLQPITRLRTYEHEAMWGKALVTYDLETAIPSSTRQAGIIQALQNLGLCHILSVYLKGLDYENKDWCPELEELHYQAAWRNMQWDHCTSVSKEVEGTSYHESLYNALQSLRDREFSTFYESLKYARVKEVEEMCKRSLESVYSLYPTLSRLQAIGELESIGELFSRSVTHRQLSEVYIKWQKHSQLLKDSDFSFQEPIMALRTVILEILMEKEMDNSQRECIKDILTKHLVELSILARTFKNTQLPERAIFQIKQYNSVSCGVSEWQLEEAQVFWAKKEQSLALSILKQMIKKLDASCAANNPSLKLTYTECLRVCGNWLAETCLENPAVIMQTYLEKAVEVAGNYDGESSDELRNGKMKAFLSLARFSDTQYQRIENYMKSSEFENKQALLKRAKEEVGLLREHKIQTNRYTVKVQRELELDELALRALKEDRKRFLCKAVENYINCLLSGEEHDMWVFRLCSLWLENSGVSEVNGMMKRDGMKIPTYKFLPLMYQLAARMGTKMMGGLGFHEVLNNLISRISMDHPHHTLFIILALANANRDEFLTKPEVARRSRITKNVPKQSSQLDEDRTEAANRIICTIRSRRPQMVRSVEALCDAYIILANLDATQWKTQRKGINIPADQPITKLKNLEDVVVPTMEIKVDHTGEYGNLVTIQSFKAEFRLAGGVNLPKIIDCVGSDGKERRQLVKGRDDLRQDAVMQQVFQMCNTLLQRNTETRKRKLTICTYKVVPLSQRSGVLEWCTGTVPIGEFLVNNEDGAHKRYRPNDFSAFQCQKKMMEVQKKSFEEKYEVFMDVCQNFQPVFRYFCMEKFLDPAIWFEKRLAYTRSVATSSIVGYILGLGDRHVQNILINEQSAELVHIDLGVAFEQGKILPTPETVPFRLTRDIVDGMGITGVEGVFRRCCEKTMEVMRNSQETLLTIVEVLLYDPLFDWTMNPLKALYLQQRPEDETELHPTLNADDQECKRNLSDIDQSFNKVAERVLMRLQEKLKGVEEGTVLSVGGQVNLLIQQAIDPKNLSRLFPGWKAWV
Briefly: ATM inhibition test (phosphorylation of Chk2 generated by ionizing radiation, AlphaScreen SureFire). Type of experiment: cell-based. Particulars: phosphorylated Chk2 in NCI-H460 cells, ionizing radiation 8Gy, 1 hour after test compound treatment; read-out: ATM inhibitory activity. Summed up: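 Human NCI-H460 lung cancer cells were treated with compound for 1 h, then irradiated at 8Gy and incubated 1 h at 37° C. Phospho-Chk2 was quantified by AlphaScreen SureFire; inhibition % was normalised between irradiated untreated and non-irradiated untreated wells.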
A general note: Alpha assays give light when donor and acceptor beads are brought close together.
With `Cc1cc(CNc2ccc3c(c2)Sc2cccc(-c4cc(N5CCOCC5)cc(=O)[nH]4)c2S3)ccn1` [Example 1-44-3, 6-(7-(((2-Methylpyridin-4-yl)methyl)amino)thianthren-1-yl)-4-morpholino pyridin-2(1H)-one], the IC50 was 100 to 500 nM. The value for `COCCNCc1cccc(C(C)Nc2ccc3c(c2)Sc2cccc(-c4cc(N5CCOCC5)cc(=O)[nH]4)c2S3)n1` (stereo not drawn) [Example 1-20-9, 6-(7-((1-(6-(((2-Methoxyethyl)amino)methyl)pyridin-2-yl)ethyl)amino)thianthren-1-yl)-4-morpholino pyridin-2 (1H)-one] was 100 to 500 nM; that for `Cc1ccc(C(CCCN(C)C)Nc2ccc3c(c2)Sc2cccc(-c4cc(N5CCOCC5)cc(=O)[nH]4)c2S3)nc1` (single isomer, unassigned) [Example 1-51-4, 6-(7-((4-(Dimethylamino)-1-(5-methylpyridin-2-yl)butyl)amino)thianthren-1-yl)-4-morpholino pyridin-2(1H)-one] was 100 to 500 nM. As to `O=c1cc(N2CCOCC2)cc(-c2cccc3c2Sc2ccc(NC4CCN(Cc5cccnc5)C4)cc2S3)[nH]1` (stereo not drawn) [Example 1-24-11, 4-Morpholino-6-(7-((1-(pyridin-3-ylmethyl)pyrrolidin-3-yl)amino)thianthren-1-yl)pyridin-2 (1H)-one], the IC50 was below 100 nM.

As to `CCOC(=O)C(C)Nc1ccc2c(c1)Sc1cccc(-c3cc(N4CCOCC4)cc(=O)[nH]3)c1S2` (stereo not drawn) [Example 1-12-55, Ethyl 2-((6-(4-morpholino-6-oxo-1,6-dihydropyridin-2-yl)thianthren-2-yl)amino) propanoate], the IC50 lay within 100 to 500 nM.

As for `CCCC(Nc1ccc2c(c1)Sc1cccc(-c3cc(N4CCOCC4)cc(=O)[nH]3)c1O2)c1cncc(OC)c1` (stereo not drawn) [Example 4-4-26, 6-(8-((1-(5-Methoxypyridin-3-yl)butyl)amino)phenoxathiin-4-yl)-4-morpholino pyridin-2(1H)-one], the IC50 is 100 to 500 nM. With `COCCN(C)CCC(Nc1ccc2c(c1)Sc1cccc(-c3cc(N4CCOCC4)cc(=O)[nH]3)c1S2)c1cnc(C)cn1` (single isomer, unassigned) [Example 10-3-4, 6-(7-((3-((2-Methoxyethyl) (methyl)amino)-1-(5-methylpyrazin-2-yl)propyl)amino)thianthren-1-yl)-4-morpholino pyridin-2(1H)-one], the IC50 was below 100 nM. For `CC(Nc1ccc2c(c1)Sc1cccc(-c3cc(N4CCOCC4)cc(=O)[nH]3)c1S2)c1cccc(CN2CCCCC2)n1` (stereo not drawn) [Example 1-12-109, 4-Morpholino-6-(7-((1-(6-(piperidin-1-ylmethyl)pyridin-2-yl)ethyl)amino)thianthren-1-yl)pyridin-2 (1H)-one], the IC50 is 100 to 500 nM.

On to `CNc1ccc(CN2CCC(Nc3ccc4c(c3)Cc3cccc(-c5cc(N6CCOCC6)cc(=O)[nH]5)c3O4)CC2)cn1` [Example 2-28-8, 6-(7-((1-((6-(Methylamino)pyridin-3-yl)methyl)piperidin-4-yl)amino)-9H-xanthen-4-yl)-4-morpholino pyridin-2(1H)-one], for which the IC50 was in the range of 100 to 500 nM. For `CC[C@@H](C(C)Nc1ccc2c(c1)Sc1cccc(-c3cc(N4CCOCC4)cc(=O)[nH]3)c1S2)N1CCOCC1` (stereo partly drawn) [Example 1-21-3, 4-Morpholino-6-(7-(((3S)-3-morpholinopentan-2-yl)amino)thianthren-1-yl) pyridin-2(1H)-one], the IC50 fell in the range of 100 to 500 nM. `Cc1cccc(C(Nc2ccc3c(c2)Sc2cccc(-c4cc(N5CCOCC5)cc(=O)[nH]4)c2S3)C2CCNC2)n1` (stereo not drawn) [Example 1-20-14, 6-(7-(((6-Methylpyridin-2-yl)(pyrrolidin-3-yl)methyl)amino)thianthren-1-yl)-4-morpholino pyridin-2(1H)-one]: the IC50 fell in the range of 100 to 500 nM. In the case of `O=c1cc(N2CCOCC2)cc(-c2cccc3c2Sc2ccc(NCc4cncc(-n5cccc5)c4)cc2S3)[nH]1` [Example 1-12-19, 6-(7-(((5-(1H-Pyrrol-1-yl)pyridin-3-yl)methyl)amino)thianthren-1-yl)-4-morpholino pyridin-2(1H)-one], the IC50 is below 100 nM.
